These are literature values, as cited in patent EP3628310A1, “PHARMACEUTICAL COMPOSITION COMPRISING SOLID DISPERSIONS OF AMORPHOUS CLADRIBINE AND PHARMACEUTICALLY ACCEPTABLE WATER SOLUBLE CARRIER” (Synbias Pharma AG, priority 2018, dated 2020).

Where two headings read alike, the source gives them in different places.

Take `Nc1nc(Cl)nc2c1ncn2[C@H]1C[C@H](O)[C@@H](CO)O1` [Tablet 2-CdA, 2-chloro-2'-deoxyadenosine]: the “calculated half time T1/2” value runs as follows: (pH 1, 37°C) 22.2 min; (pH 2, 37°C) 96 min. Besides, under “pH 1, after 2 h of heating to 37°C”, the 2-CdA content is given as 2%. Under “pH 2, 37°, after 6 h”, the “2-CdA remains in solution” value is reported as 13%.
